Laboratory results published in patent US20190248834A1, “ENDOMORPHIN-2, TETRAPEPTIDE DERIVATIVES THEREOF, AND USES THEREOF” (priority 2016, published 2019).
Primed or numbered codes have the meaning given here. *: point of attachment. NHPhenethyl = c1ccc(CCN*)cc1; Bz′ = not defined here; NHBn = c1ccc(CN*)cc1; Propionyl = CCC(=O)*; NHNHAc = CC(=O)NN*; NHiPr = CC(C)N*; NHNH2 = NN*; For = O=C*; NHOH = ON*

Tests used:
Assay type in all cases: in vivo, human
[1] = tested on: periostitis of right upper tibia, osteoarthritis of left knee, left hip joint pain, lower back pain; experiment: Example 87: pain relief at multiple sites in one subject, topical; details: for degree of analgesic effect / duration of pain relief / pain relief at the treated sites / time to pain relief: 0.8% (w/v) in WEP442, topical to the sites of pain; for duration of pain relief, right upper tibia: 0.8% (w/v) in WEP442, periostitis of right upper tibia
Description: A caregiver subject, presented with (a) painful periostitis of the right upper tibia for about 3 months, (b) painful early osteoarthritis of the left knee for about 1 year, (c) painful left hip joint of about 6 months, and (d) lower back pain near the end of the work day for about 2 years.
Over the course of 16 days, this subject evaluated the analgesic efficacy of eight (8) endomorphin-2 tetrapeptide derivatives in WEP442 at a concentration of 0.8% (w/v) applied topically to the sites of pain.
The lower back pain returned toward the end of the following work day.
Relief of lower back pain lasted for 20-24 hours (4+ effect). […]
For the above same subject, the composition containing 0.8% (w/v) of N-Ac-Tyr-Pro-Phe-Phe-NHCH(CH3)2 (SEQ ID NO: 27) in WEP442 was topically applied to the right upper tibia, left knee and left hip.
For the above same subject, the composition containing 0.8% (w/v) of N-Fo-Tyr-Pro-Phe-Phe-NH2 (SEQ ID NO: 104) in WEP442 was topically applied to 3 sites. Relief of pain was variable. […] Relief of pain in the right upper tibia was complete in about 4 minutes, lasting for 12 hours.
For the above same subject, the composition containing 0.8% (w/v) of N-Bz-Tyr-Pro-Phe-Phe-NH2 (SEQ ID NO: 84) in WEP442 provided relief of pain within 2-4 minutes. On the left hip, the relief was complete, lasting for about 12 hours (4+ effect). On the left knee, relief was incomplete, about 50%, lasting for only about 3 hours (2+ effect). On the right upper tibia, relief was complete and lasted for about 12 hours (4+ effect).

[2] = tested on: psoriatic arthritis of interphalangeal joints of the fingers; experiment: Example 93: multiple derivatives evaluated for relief of pain associated with psoriatic arthritis, topical; details: 0.8% (w/v) in WEP442, topical to both hands
Description: A subject with extensive plaque psoriasis and psoriatic arthritis of interphalangeal joints of the fingers evaluated multiple tetrapeptide derivatives for comparative effectiveness on relief of their painful fingers. Over the course of 4 weeks, this subject evaluated the analgesic efficacy of ten (10) endomorphin-2 tetrapeptide derivatives in WEP442 at a concentration of 0.8% (w/v) applied topically to both hands, which included all fingers.

[3] = tested on: severe osteoarthritis of both knees; experiment: Example 88: analgesic efficacy of eight derivatives on severe osteoarthritis, topical
Description: A subject with severe osteoarthritis of both knees for a duration of about 7 years evaluated numerous tetrapeptide derivatives over the past years. […] Over the course of 3 weeks, this subject evaluated the analgesic efficacy of eight (8) endomorphin-2 tetrapeptide derivatives in WEP442 at a concentration of 1% (w/v) applied topically to the knees.
Reapplication at the end of that time again provided the same effect. Application at bedtime provided relief of pain for 7 hours. The same results were achieved the next day (3+ to 4+ effect).
A second application, about 15 minutes later, provided somewhat more relief (2+ effect).
Application at 9:30 p.m. provided relief until 5:30 a.m., and similar results were achieved the next day (3+ to 4+ effect).
No modification of pain in the right knee, which had received application of vehicle WEP442 as a control, was detected. Application of the composition containing the tetrapeptide derivative to the right knee about 15 minutes later provided prompt relief of pain. Pain relief in both knees lasted for about 5 hours (3+ to 4+ effect).
Relief lasted for about 3 hours. Re-application at that time provided the same degree of pain relief in about 5 minutes, which lasted about another 3 hours (2+ effect).
For the above same subject, the composition containing 1% (w/v) of N-Fo-Tyr-Pro-Phe-Phe-NH2 (SEQ ID NO: 104) in WEP442 was applied to the left knee, and the composition containing 1% (w/v) of N-Bz-Tyr-Pro-Phe-Phe-NH2 (SEQ ID NO: 84) in WEP442 was applied to the right knee moments later. Relief of pain in both knees seemed equivalent, was detectable in 5-7 minutes and lasted for about 4 hours. This procedure was repeated the next day with about the same results. The degree of pain relief from both solutions was rated as 3+ effect.

[4] = 1% (w/v) in WEP442, topical to the knees
[5] = 0.8% (w/v) in WEP442, left knee
[6] = 0.8% (w/v) in WEP442, lower lumbar
[7] = 0.8% (w/v) in WEP442, right upper tibia

Substance | degree of analgesic effect [1] | duration of pain relief [1] | pain relief at the treated sites [1] | time to pain relief [1] | duration of pain relief [2] | pain relief [2] | time to pain relief [2] | analgesic effect grade [3, 4] | pain relief [3, 4] | degree of analgesic effectiveness [2] | duration of pain relief [3, 4] | time to pain relief [3, 4] | duration of pain relief, right upper tibia [1] | further results
N-Ac-Tyr-Pro-Phe-Phe-NHCH2C6H5 (Ac-YPFF-NHBn; SMILES CC(=O)N[C@@H](Cc1ccc(O)cc1)C(=O)N1CCC[C@H]1C(=O)N[C@@H](Cc1ccccc1)C(=O)N[C@@H](Cc1ccccc1)C(=O)NCc1ccccc1) | 4+ | ≥ 5 h | complete relief of pain | 3 to 4 min | about 6 hours | substantial relief of pain | 3 to 5 min | 1+ (1+ (25%): partial relief of pain for less than 4 hours) | little relief of pain | – | – | – | – | analgesic effect grade ([3]; 1% (w/v) in WEP442, second application about 15 minutes later): 2+ (2+ (50%): substantial but incomplete relief of pain for less than 4 hours)
N-Ac-Tyr-Pro-Phe-Phe-NHCH2CH2C6H5 (Ac-YPFF-NHPhenethyl; SMILES CC(=O)N[C@@H](Cc1ccc(O)cc1)C(=O)N1CCC[C@H]1C(=O)N[C@@H](Cc1ccccc1)C(=O)N[C@@H](Cc1ccccc1)C(=O)NCCc1ccccc1) | 0 (zero represented no relief) | – | no detectable analgesic effect | – | – | no detectable analgesic effect | – | 0 | no detectable analgesic effect | 0 (zero represented no relief) | – | – | – | –
N-Ac-Tyr-Pro-Phe-Phe-NHCH2CH3 (Ac-YPFF-NHEt; SMILES CCNC(=O)[C@H](Cc1ccccc1)NC(=O)[C@H](Cc1ccccc1)NC(=O)[C@@H]1CCCN1C(=O)[C@H](Cc1ccc(O)cc1)NC(C)=O) | 4+ | ≥ 5 h | complete relief of pain | 3 to 4 min | about 7 hours | complete relief of pain | 1 to 2 min | – | very good relief of pain | 4+ | 3 to 4 h | 3 to 5 min | – | duration of pain relief ([3]; 1% (w/v) in WEP442, application at bedtime): 7 h
N-Ac-Tyr-Pro-Phe-Phe-NHCH(CH3)2 (Ac-YPFF-NHiPr; SMILES CC(=O)N[C@@H](Cc1ccc(O)cc1)C(=O)N1CCC[C@H]1C(=O)N[C@@H](Cc1ccccc1)C(=O)N[C@@H](Cc1ccccc1)C(=O)NC(C)C) | 4+ | at least 4 hours | Complete relief of pain | 3 to 4 min | 2 to 3 h | only minimal relief of pain | 5 to 6 min | 2+ (2+ (50%): substantial but incomplete relief of pain for less than 4 hours) | moderate relief of pain | – | about 3 hours | ≤ 15 min | 7 h | –
N-Ac-Tyr-Pro-Phe-Phe-NHNHAc (Ac-YPFF-NHNHAc; SMILES CC(=O)NNC(=O)[C@H](Cc1ccccc1)NC(=O)[C@H](Cc1ccccc1)NC(=O)[C@@H]1CCCN1C(=O)[C@H](Cc1ccc(O)cc1)NC(C)=O) | 4+ | 8 to 24 h | complete relief of pain | 1 to 2 min | about 7 hours | complete relief of pain | ≤ 2 min | – | substantial relief of pain | 4+ | about 5 hours | 2 to 3 min | – | –
N-Ac-Tyr-Pro-Phe-Phe-NHOH (Ac-YPFF-{NHOH}; SMILES CC(=O)N[C@@H](Cc1ccc(O)cc1)C(=O)N1CCC[C@H]1C(=O)N[C@@H](Cc1ccccc1)C(=O)N[C@@H](Cc1ccccc1)C(=O)NO) | 4+ | ≥ 12 h | complete relief of pain | ≤ 1 min | about 2 hours | complete relief of pain | 1 to 2 min | – | very good relief of pain | – | about 5 hours | 3 to 4 min | – | duration of relief of lower back pain ([1]; 0.8% (w/v) in WEP442, lower back): 20 to 24 h
N-Bz-Tyr-Pro-Phe-Phe-NH2 ({Bz′}-YPFF-NH2) | – | – | – | 2 to 4 min | about 10 hours | incomplete, but substantial relief of pain | 4 to 5 min | – | – | – | about 4 hours | – | about 12 hours | degree of analgesic effect, left hip ([1]; 0.8% (w/v) in WEP442, left hip): 4+; duration of pain relief, left hip ([1]; 0.8% (w/v) in WEP442, left hip): about 12 hours; pain relief, left hip ([1]; 0.8% (w/v) in WEP442, left hip): complete; duration of pain relief, left knee [1, 5]: about 3 hours; degree of analgesic effect, lower lumbar pain [1, 6]: 4+; duration of pain relief, lower lumbar pain [1, 6]: about 4 hours; pain relief, lower lumbar pain [1, 6]: responded completely; degree of analgesic effect, right upper tibia [1, 7]: 4+; pain relief, right upper tibia [1, 7]: complete
N-Fo-Tyr-Pro-Phe-Phe-NH2 (For-YPFF-NH2; SMILES NC(=O)[C@H](Cc1ccccc1)NC(=O)[C@H](Cc1ccccc1)NC(=O)[C@@H]1CCCN1C(=O)[C@H](Cc1ccc(O)cc1)NC=O) | – | – | – | – | 2 to 3 h | only minimal relief of pain | 5 to 6 min | – | – | – | about 4 hours | – | 12 h | time to pain relief, left hip ([1]; 0.8% (w/v) in WEP442, left hip): about 5 minutes; pain relief, left knee [1, 5]: No relief of pain; pain relief, right upper tibia [1, 7]: complete; time to pain relief, right upper tibia [1, 7]: about 4 minutes
N-Pa-Tyr-Pro-Phe-Phe-NHNH2 (Propionyl-YPFF-NHNH2; SMILES CCC(=O)N[C@@H](Cc1ccc(O)cc1)C(=O)N1CCC[C@H]1C(=O)N[C@@H](Cc1ccccc1)C(=O)N[C@@H](Cc1ccccc1)C(=O)NN) | – | – | – | – | about 7 hours | complete relief of pain | 2 to 3 min | – | – | 4+ | – | – | – | –
N-Pa-Tyr-Pro-Phe-Phe-NHOH (Propionyl-YPFF-{NHOH}; SMILES CCC(=O)N[C@@H](Cc1ccc(O)cc1)C(=O)N1CCC[C@H]1C(=O)N[C@@H](Cc1ccccc1)C(=O)N[C@@H](Cc1ccccc1)C(=O)NO) | – | – | – | – | about 7 hours | complete relief of pain | 2 to 3 min | – | – | 4+ | – | – | – | –
